In patent publication US6812028B1, “Embryogenesis and plant regeneration from microspores” (University of Guelph, priority 1999, dated 2004):

Tests used:
Format in all cases: cell-based
[1] = tested on: microspores of spring wheat genotypes Chris and Pavon 79; experiment: AGP effect on embryo development from microspores, 0.8 ml drop on solid MMS4 with 3-4 ovaries; conditions: for avg. # embryos: genotype Chris, 5 reps; for # embryos: genotype Pavon 79, 3 reps
Description: The effect of AGP on microspore embryogenesis in the presence of ovary co-culture was assessed using Chris and Pavon 79 wheat genotypes. Media comprising 5 mg/liter and 10 mg/liter of AGP were compared with a control medium, on microspore embryogenesis in the presence of ovary co-culture. The results in Table 9 indicate that overall response of Chris to AGP is higher than the response of Pavon 79.

[2] = tested on: wheat microspores cv Pavon 79; experiment: Regeneration of plants from wheat microspores with AGP in induction media MMS4; conditions: for # of plants Albino / # of plants Total / # of plants green / % of green plants / % of regen.: 250 embryos transferred to regeneration medium; for Total # of embryos: induction media MMS4, cv Pavon 79
Description: (§1) The effect of AGP on embryogenesis and plant regeneration was assessed in wheat microspores which were isolated from genotype Pavon 79 according to the method of the present invention. AGP levels of 0, 1, 5, and 10 mg/liter were tested. […] Additionally, the data illustrates the presence of ovaries in co-culture enhanced embryogenesis and plant regeneration. Only at 10 mg/liter of AGP was significant embryogenesis observed in the absence of ovary co-culture. FIG. 5(a) illustrates the comparative response of wheat microspores to the presence or absence of wheat ovaries and 0 or 10 mg/L AGP. FIG. 6 illustrates the good embryo structure developed in wheat after 4 weeks on medium with ovaries and AGP.

[3] = tested on: barley cv Igri isolated microspores; experiment: AGP effect on barley isolated microspore development in liquid FHG medium; conditions: after 10 days
From the text: The effect of AGP concentration during embryogenic induction of barley microspores in culture was examined. A wide range of concentrations was applied to microspores […]. The AGP addition was effected by adding varying AGP concentrations in liquid FHG medium with 10^5 microspores onto solid FGH medium. Using a drop of microspores on solidified MFHG medium, structures were counted under an inverted microscope. The proportion of alive and dead microspores was not estimated in these plates, but the developing microspores were much higher in the 0 mg control compared to wheat. Thus, the difference in response of barley to AGP at day 10 is not as pronounced as in wheat.

[4] = tested on: spring wheat Pavon 79 isolated microspores; experiment: AGP in isolated microspore culture, liquid medium versus filter paper, co-cultured with ovaries; conditions: for Total # Embryos/Plate: MMS4, with ovaries
Description: […] […] The results are similar for liquid and filter paper at the 3 compared concentrations, and 10 mg/liter of AGP gave the best response.

[5] = tested on: wheat isolated microspores cv Pavon 79; experiment: Response of wheat isolated microspore cultures to AGP levels in MMS4 medium, with and without ovaries; conditions: MMS4, cv Pavon 79
Description: as §1, with “tested. [table]” for “tested.”

[6] = tested on: wheat (cv. Pavon 76) microspores; experiment: Influence of regeneration media on plant development from wheat microspores; conditions: AGP in regeneration media
Description: A comparison of regeneration media composition was conducted for wheat microspores induced on a medium in the presence and absence AGP. The regeneration medium was based on MMS4 medium having either 3% sucrose or 9% maltose as a sugar source, or in an AGP-containing medium based on MMS4 with 9% maltose. The microspores were either induced on a support, in this case, a Watman #2 filter disk, or were placed on a solid media in liquid drops. […] Sucrose within the regeneration media was effective in producing a high percentage of green plants, however maltose was also found to be effective. Without wishing to be bound by theory, this may be due to the quicker release of energy from sucrose that is required for regeneration.

In the case of arabinogalactan protein [AGP], the “avg. # embryos” value ([1]; AGP 5 mg/L) is reported as 5618, the “# embryos” value ([1]; AGP 5 mg/L) is reported as 4155 and the “avg. # embryos” value ([1]; AGP 10 mg/L) is reported as 9836. The “# embryos” value ([1]; AGP 10 mg/L) was 4681, the “# of plants Albino” value ([2]; AGP 1 mg/L with ovaries) was 70 and the “# of plants Total” value ([2]; AGP 1 mg/L with ovaries) was 118. For the same substance, the “# of plants green” value ([2]; AGP 1 mg/L with ovaries) was 48, the “% of green plants” value ([2]; AGP 1 mg/L with ovaries) was 41% and the “% of regen.” value ([2]; AGP 1 mg/L with ovaries) was 47%. For the same substance, the “Total # of embryos” value ([2]; AGP 1 mg/L with ovaries) was 2130, the “# of plants Albino” value ([2]; AGP 5 mg/L with ovaries) was 70 and the “# of plants Total” value ([2]; AGP 5 mg/L with ovaries) was 120. For the same substance, the “# of plants green” value ([2]; AGP 5 mg/L with ovaries) was 50, the “% of green plants” value ([2]; AGP 5 mg/L with ovaries) was 42% and the “% of regen.” value ([2]; AGP 5 mg/L with ovaries) was 48%. For the same substance, the “Total # of embryos” value ([2]; AGP 5 mg/L with ovaries) was 3393, the “# of plants Albino” value ([2]; AGP 10 mg/L with ovaries) was 60 and the “# of plants Total” value ([2]; AGP 10 mg/L with ovaries) was 189. For the same substance, the “# of plants green” value ([2]; AGP 10 mg/L with ovaries) was 129, the “% of green plants” value ([2]; AGP 10 mg/L with ovaries) was 68% and the “% of regen.” value ([2]; AGP 10 mg/L with ovaries) was 76%. For the same substance, the “Total # of embryos” value ([2]; AGP 10 mg/L with ovaries) was 4250, the “embryogenesis, regeneration and % green plant production” value ([2]; addition of 10 mg/L of AGP, genotype Pavon 79) was “significant improvement” and the Dividing within microspore ([3]; AGP 2 mg/L) was 39600. The “Free Multicellulars” value ([3]; AGP 2 mg/L) was 33550, the “Total Developing” value ([3]; AGP 2 mg/L) was 73150 and the Dividing within microspore ([3]; AGP 5 mg/L) was 43000. For the same substance, the “Free Multicellulars” value ([3]; AGP 5 mg/L) was 38230, the “Total Developing” value ([3]; AGP 5 mg/L) was 81230 and the Dividing within microspore ([3]; AGP 10 mg/L) was 45280. For the same substance, the “Free Multicellulars” value ([3]; AGP 10 mg/L) was 35750, the “Total Developing” value ([3]; AGP 10 mg/L) was 81030 and the Dividing within microspore ([3]; AGP 25 mg/L) was 39880. The “Free Multicellulars” value ([3]; AGP 25 mg/L) was 36030, the “Total Developing” value ([3]; AGP 25 mg/L) was 75910 and the Dividing within microspore ([3]; AGP 50 mg/L) was 37120. The “Free Multicellulars” value ([3]; AGP 50 mg/L) was 39880, the “Total Developing” value ([3]; AGP 50 mg/L) was 77000 and the Dividing within microspore ([3]; AGP 100 mg/L) was 42900. For the same substance, the “Free Multicellulars” value ([3]; AGP 100 mg/L) was 37730, the “Total Developing” value ([3]; AGP 100 mg/L) was 80630 and the Dividing within microspore ([3]; AGP 500 mg/L) was 35890. For the same substance, the “Free Multicellulars” value ([3]; AGP 500 mg/L) was 37810, the “Total Developing” value ([3]; AGP 500 mg/L) was 73700 and the Dividing within microspore ([3]; AGP 1000 mg/L) was 38500. For the same substance, the “Free Multicellulars” value ([3]; AGP 1000 mg/L) was 41600, the “Total Developing” value ([3]; AGP 1000 mg/L) was 80100 and the “embryo response in liquid and on filter paper” value ([4]; 10 mg/liter of AGP compared with 0 and 5 mg/liter) was “best response”. The “Total # Embryos/Plate” value ([4]; AGP 1 mg/L, Liquid) was 2130, the “Total # Embryos/Plate” value ([4]; AGP 5 mg/L, Filter) was 3080 and the “Total # Embryos/Plate” value ([4]; AGP 5 mg/L, Liquid) was 3393. The “Total # Embryos/Plate” value ([4]; AGP 10 mg/L, Filter) was 4528, the “Total # Embryos/Plate” value ([4]; AGP 10 mg/L, Liquid) was 4250 and the “# alive and dividing d 10” value ([5]; AGP 1 mg/L, ovary +) was 22605. The “# alive not dividing d 10” value ([5]; AGP 1 mg/L, ovary +) was 2805, the “# dead microspores d 10” value ([5]; AGP 1 mg/L, ovary +) was 47175 and the “# embryos 30 days” value ([5]; AGP 1 mg/L, ovary +) was 2130. The “# multicell burst d 10” value ([5]; AGP 1 mg/L, ovary +) was 1072, the “# multicellular d 10” value ([5]; AGP 1 mg/L, ovary +) was 18500 and the “# alive and dividing d 10” value ([5]; AGP 1 mg/L, ovary −) was 22125. For the same substance, the “# alive not dividing d 10” value ([5]; AGP 1 mg/L, ovary −) was 5650, the “# dead microspores d 10” value ([5]; AGP 1 mg/L, ovary −) was 47558 and the “# embryos 30 days” value ([5]; AGP 1 mg/L, ovary −) was 0. For the same substance, the “# multicell burst d 10” value ([5]; AGP 1 mg/L, ovary −) was 400, the “# multicellular d 10” value ([5]; AGP 1 mg/L, ovary −) was 13750 and the “# alive and dividing d 10” value ([5]; AGP 5 mg/L, ovary +) was 18272. The “# alive not dividing d 10” value ([5]; AGP 5 mg/L, ovary +) was 7600, the “# dead microspores d 10” value ([5]; AGP 5 mg/L, ovary +) was 30250 and the “# embryos 30 days” value ([5]; AGP 5 mg/L, ovary +) was 3393. For the same substance, the “# multicell burst d 10” value ([5]; AGP 5 mg/L, ovary +) was 7080, the “# multicellular d 10” value ([5]; AGP 5 mg/L, ovary +) was 39078 and the “# alive and dividing d 10” value ([5]; AGP 5 mg/L, ovary −) was 26152. For the same substance, the “# alive not dividing d 10” value ([5]; AGP 5 mg/L, ovary −) was 8275, the “# dead microspores d 10” value ([5]; AGP 5 mg/L, ovary −) was 34500 and the “# embryos 30 days” value ([5]; AGP 5 mg/L, ovary −) was 0. For the same substance, the “# multicell burst d 10” value ([5]; AGP 5 mg/L, ovary −) was 742, the “# multicellular d 10” value ([5]; AGP 5 mg/L, ovary −) was 28345 and the “# alive and dividing d 10” value ([5]; AGP 10 mg/L, ovary +) was 8500. For the same substance, the “# alive not dividing d 10” value ([5]; AGP 10 mg/L, ovary +) was 0, the “# dead microspores d 10” value ([5]; AGP 10 mg/L, ovary +) was 23550 and the “# embryos 30 days” value ([5]; AGP 10 mg/L, ovary +) was 4250. The “# multicell burst d 10” value ([5]; AGP 10 mg/L, ovary +) was 15452, the “# multicellular d 10” value ([5]; AGP 10 mg/L, ovary +) was 68000 and the “# alive and dividing d 10” value ([5]; AGP 10 mg/L, ovary −) was 33275. The “# alive not dividing d 10” value ([5]; AGP 10 mg/L, ovary −) was 6250, the “# dead microspores d 10” value ([5]; AGP 10 mg/L, ovary −) was 24650 and the “# embryos 30 days” value ([5]; AGP 10 mg/L, ovary −) was 50. For the same substance, the “# multicell burst d 10” value ([5]; AGP 10 mg/L, ovary −) was 4620, the “# multicellular d 10” value ([5]; AGP 10 mg/L, ovary −) was 41950 and the “effect of addition of AGP to the regeneration media on green plants” value [6] was “reduced the number of green plants produced”.
